Source: PubChem BioAssay AID1259407 (Chemical Carcinogenesis Research Information System (CCRIS), 2018)
Active and inactive are the calls of the source. No rule for the calls is given here.

Test system: CCRIS mutagenicity, Ames/micronucleus/aberration tests
Experiment: CCRIS mutagenicity studies
[1] = Test System: AMES SALMONELLA TYPHIMURIUM, Strain/Indicator: TA98, Metabolic Activation: NONE, Method: STANDARD PLATE
[2] = Test System: AMES SALMONELLA TYPHIMURIUM, Strain/Indicator: TA98, Metabolic Activation: RAT, LIVER, S-9, AROCLOR 1254, Method: STANDARD PLATE
[3] = Test System: AMES SALMONELLA TYPHIMURIUM, Strain/Indicator: TA100, Metabolic Activation: NONE, Method: STANDARD PLATE
[4] = Test System: AMES SALMONELLA TYPHIMURIUM, Strain/Indicator: TA100, Metabolic Activation: RAT, LIVER, S-9, AROCLOR 1254, Method: STANDARD PLATE
[5] = Test System: AMES SALMONELLA TYPHIMURIUM, Strain/Indicator: TA1535, Metabolic Activation: RAT, LIVER, S-9, AROCLOR 1254, Method: STANDARD PLATE
[6] = Test System: AMES SALMONELLA TYPHIMURIUM, Strain/Indicator: TA1537, Metabolic Activation: RAT, LIVER, S-9, AROCLOR 1254, Method: STANDARD PLATE
[7] = Test System: CHINESE HAMSTER V-79, Strain/Indicator: V-79/6-THIOGUANINE, Metabolic Activation: NONE, Method: STANDARD PLATE
[8] = Test System: AMES SALMONELLA TYPHIMURIUM, Strain/Indicator: TA1537, Metabolic Activation: NONE, Method: STANDARD PLATE
[9] = Test System: AMES SALMONELLA TYPHIMURIUM, Strain/Indicator: TA1535, Metabolic Activation: NONE, Method: STANDARD PLATE
[10] = Test System: AMES SALMONELLA TYPHIMURIUM, Strain/Indicator: TA98, Metabolic Activation: NONE, Method: PREINCUBATION
[11] = Test System: AMES SALMONELLA TYPHIMURIUM, Strain/Indicator: TA100, Metabolic Activation: NONE, Method: PREINCUBATION

## C[C@]12C=CC3=C4CCC(=O)C=C4CC[C@H]3[C@@H]1CC[C@@H]2O
[1]
  mutagenic call: inactive; negative
Test System: AMES SALMONELLA TYPHIMURIUM, Strain/Indicator: TA98, Metabolic Activation: RAT, LIVER, S-9, AROCLOR 1254 (5%, 30%), Method: PREINCUBATION
  mutagenic call: inactive; negative
[2]
  mutagenic call: inactive; negative
Test System: AMES SALMONELLA TYPHIMURIUM, Strain/Indicator: TA98, Metabolic Activation: RAT, LIVER, S-9, Method: STANDARD PLATE
  mutagenic call: inactive; negative; toxicity at 3000 ug/plate
[3]
  mutagenic call: inactive; negative
Test System: AMES SALMONELLA TYPHIMURIUM, Strain/Indicator: TA100, Metabolic Activation: RAT, LIVER, S-9, AROCLOR 1254 (5%, 30%), Method: PREINCUBATION
  mutagenic call: inactive; negative
[4]
  mutagenic call: inactive; negative
Test System: AMES SALMONELLA TYPHIMURIUM, Strain/Indicator: TA100, Metabolic Activation: RAT, LIVER, S-9, Method: STANDARD PLATE
  mutagenic call: inactive; negative
Test System: AMES SALMONELLA TYPHIMURIUM, Strain/Indicator: TA102, Metabolic Activation: RAT, LIVER, S-9, AROCLOR 1254 (5%, 30%), Method: PREINCUBATION
  mutagenic call: inactive; negative
[5]
  mutagenic call: inactive; negative
Test System: AMES SALMONELLA TYPHIMURIUM, Strain/Indicator: TA1535, Metabolic Activation: RAT, LIVER, S-9, Method: STANDARD PLATE
  mutagenic call: inactive; negative
[6]
  mutagenic call: inactive; negative
Test System: AMES SALMONELLA TYPHIMURIUM, Strain/Indicator: TA1537, Metabolic Activation: RAT, LIVER, S-9, Method: STANDARD PLATE
  mutagenic call: inactive; negative
Test System: AMES SALMONELLA TYPHIMURIUM, Strain/Indicator: TA1538, Metabolic Activation: RAT, LIVER, S-9, AROCLOR 1254, Method: STANDARD PLATE
  mutagenic call: inactive; negative
Test System: AMES SALMONELLA TYPHIMURIUM, Strain/Indicator: TA1538, Metabolic Activation: RAT, LIVER, S-9, Method: STANDARD PLATE
  mutagenic call: inactive; negative
[7]
  mutagenic call: inactive; negative
Test System: CHINESE HAMSTER V-79, Strain/Indicator: V-79/6-THIOGUANINE, Metabolic Activation: RAT, LIVER, S-9, AROCLOR 1254, Method: STANDARD PLATE
  mutagenic call: inactive; negative
Test System: CHO/HGPRT, Strain/Indicator: CHO-K1-BH4, Metabolic Activation: NONE, Method: STANDARD PLATE
  mutagenic call: inactive; negative
Test System: CHO/HGPRT, Strain/Indicator: CHO-K1-BH4, Metabolic Activation: RAT, LIVER, S-9, AROCLOR 1254, Method: STANDARD PLATE
  mutagenic call: inactive; negative

## CN(C)CCNC(=O)c1cccc2nc(-c3ccccc3)oc12
[8]
  mutagenic call: inactive; negative

## Nc1ccc2c(c1)C(=O)c1ccc(N)cc1C2=O
[1]
  mutagenic call: inactive; negative
[2]
  mutagenic call: active; positive
[3]
  mutagenic call: inactive; negative
[4]
  mutagenic call: inactive; negative
[9]
  mutagenic call: inactive; negative
[5]
  mutagenic call: inactive; negative
[8]
  mutagenic call: inactive; negative
[6]
  mutagenic call: active; positive
Test System: AMES SALMONELLA TYPHIMURIUM, Strain/Indicator: TA1538, Metabolic Activation: NONE, Method: STANDARD PLATE
  mutagenic call: inactive; negative
Test System: AMES SALMONELLA TYPHIMURIUM, Strain/Indicator: TA1978, Metabolic Activation: RAT, LIVER, S-9, AROCLOR 1254, Method: STANDARD PLATE
  mutagenic call: inactive; negative

## O=[N+]([O-])c1ccc2cc3c(cc2c1)[C@H](O)[C@@H](O)C=C3
[1]
  mutagenic call: active; positive
[2]
  mutagenic call: active; positive

## CCCCCCN(N=O)/C(N)=N/[N+](=O)[O-]
[9]
  mutagenic call: active; positive

## CCNC(=O)Nc1ccc(OCC(O)CNC(C)(C)C)c(C(C)=O)c1 (configuration not stated)
[10]
  mutagenic call: inactive; negative
Test System: AMES SALMONELLA TYPHIMURIUM, Strain/Indicator: TA98, Metabolic Activation: RAT, LIVER, S-9, AROCLOR 1254 (10 OR 50 µL/PLATE), Method: PREINCUBATION
  mutagenic call: inactive; negative
[11]
  mutagenic call: inactive; negative
Test System: AMES SALMONELLA TYPHIMURIUM, Strain/Indicator: TA100, Metabolic Activation: RAT, LIVER, S-9, AROCLOR 1254 (10 OR 50 µL/PLATE), Method: PREINCUBATION
  mutagenic call: inactive; negative
Test System: AMES SALMONELLA TYPHIMURIUM, Strain/Indicator: TA1535, Metabolic Activation: NONE, Method: PREINCUBATION
  mutagenic call: inactive; negative
Test System: AMES SALMONELLA TYPHIMURIUM, Strain/Indicator: TA1535, Metabolic Activation: RAT, LIVER, S-9, AROCLOR 1254 (10 OR 50 µL/PLATE), Method: PREINCUBATION
  mutagenic call: inactive; negative
Test System: AMES SALMONELLA TYPHIMURIUM, Strain/Indicator: TA1537, Metabolic Activation: NONE, Method: PREINCUBATION
  mutagenic call: inactive; negative
Test System: AMES SALMONELLA TYPHIMURIUM, Strain/Indicator: TA1537, Metabolic Activation: RAT, LIVER, S-9, AROCLOR 1254 (10 OR 50 µL/PLATE), Method: PREINCUBATION
  mutagenic call: inactive; negative
Test System: E. COLI, Strain/Indicator: WP2 UVRA, Metabolic Activation: NONE, Method: PREINCUBATION
  mutagenic call: inactive; negative
Test System: E. COLI, Strain/Indicator: WP2 UVRA, Metabolic Activation: RAT, LIVER, S-9, AROCLOR 1254 (10 OR 50 µL/PLATE), Method: PREINCUBATION
  mutagenic call: inactive; negative

## CC(=O)N(O)c1ccc2c(ccc3ccccc32)c1
Test System: UDS HUMAN FIBROBLASTS, Strain/Indicator: THY INCORP (NON-S-PHASE), Metabolic Activation: NONE, Method: AUTORADIOGRAPHY
  mutagenic call: active; positive

## Cn1cccc1
[10]
  mutagenic call: inactive; negative
Test System: AMES SALMONELLA TYPHIMURIUM, Strain/Indicator: TA98, Metabolic Activation: RAT, LIVER, S-9, AROCLOR 1254, Method: PREINCUBATION
  mutagenic call: inactive; negative
[11]
  mutagenic call: inactive; negative
Test System: AMES SALMONELLA TYPHIMURIUM, Strain/Indicator: TA100, Metabolic Activation: RAT, LIVER, S-9, AROCLOR 1254, Method: PREINCUBATION
  mutagenic call: inactive; negative
Test System: AMES SALMONELLA TYPHIMURIUM, Strain/Indicator: TA102, Metabolic Activation: NONE, Method: PREINCUBATION
  mutagenic call: inactive; negative
Test System: AMES SALMONELLA TYPHIMURIUM, Strain/Indicator: TA102, Metabolic Activation: RAT, LIVER, S-9, AROCLOR 1254, Method: PREINCUBATION
  mutagenic call: inactive; negative

## NNc1ccn([C@@H]2C[C@H](O)[C@@H](CO)O2)c(=O)n1
Test System: CHINESE HAMSTER V-79, Strain/Indicator: V-79/6-THIOGUANINE, Metabolic Activation: NONE, Method: REPLATING
  mutagenic call: inactive; negative

## [N-]=[N+]=CC(=O)NCC(N)=O
[9]
  mutagenic call: active; positive
Test System: UDS RODENT CELLS, Strain/Indicator: THY INCORP (NON-S-PHASE), Metabolic Activation: NONE, Method: AUTORADIOGRAPHY
  mutagenic call: active; positive

## CC(=O)N(O)c1ccc(/C=C/c2ccccc2)cc1
[10]
  mutagenic call: inactive; negative
Test System: AMES SALMONELLA TYPHIMURIUM, Strain/Indicator: TA98, Metabolic Activation: RAT, LIVER, CYTOSOL, Method: PREINCUBATION
  mutagenic call: active; positive
Test System: AMES SALMONELLA TYPHIMURIUM, Strain/Indicator: TA98, Metabolic Activation: RAT, LIVER, MICROSOMES, Method: PREINCUBATION
  mutagenic call: active; positive
[7]
  mutagenic call: active; positive
